The text below walks through data of patent publication US8883801B2, “Substituted pyrazolo[1,5-a]pyrimidines as mTOR inhibitors” (Merck Sharp & Dohme Corp., priority 2010, dated 2014).

For assay [1], the system named is mTORC2 activity: phosphorylated AKT Ser473 (pAKT S473) in PC3 cells. Put plainly: mTOR target engagement assay, immunofluorescent cell-based, mTORC2 readout. As to conditions: Homo sapiens, PC-3, 1.5 h, 90 min treatment. The protocol: The target engagement of mTOR kinase inhibitors was evaluated using an immunofluorescent cell-based assay. In this assay, inhibition of mTORC1 activity was measured by the reduction in the level of phosphorylated 4E-BP1Thr37/46 (p4E-BP1 Thr37/46), and inhibition of mTORC2 activity was measured by the reduction of phosphorylated AKTSer473 (pAKT S473).
PC3 cells (prostate tumor cell-line that contains a mutation in the tumor suppressor PTEN, that promotes the phosphorylation and activation of AKT and 4E-BP1) were used in the immunofluorescence assay. PC3 cells were seeded on 384 well plates (black clear bottom, Matrix #4332) overnight. PC3 cells were then treated with 40 μl of the serially diluted test compounds (in 5% fetal bovine serum, F12 medium containing 0.25% DMSO) for ninety minutes at 37° C. The test compound solution was removed, and the plates were washed gently two times with 25 μl phosphate buffered saline (PBS). The cells were fixed by adding 25 μl of Prefer reagent (from Anatech LTD, Cat#414, a glyoxal fixative for fixing proteins within a cell) for sixty minutes followed by three washes with PBS. 5% Goat serum in PBS/0.3% Triton was used to block non-specific binding (60 minutes).
The primary antibodies targeting pAKT S473 and p4E-BP1 Thr37/46 were diluted into PBS/0.3% Triton and incubated with the cells overnight at 4° C. The antibodies targeting pAKTS473 (Cat#4085, Cell signaling) and p4E-BP1 Thr37/46 (Cat#2855, Cell signaling) were used at a 1:100 dilution. Plates were washed three times with PBS/0.1% Tween 20 before adding the secondary antibody at a 1:200 dilution. (goat anti-rabbit containing a fluorescent label, Alexa Fluor 488, Cat#A11008, Invitrogen) in PBS/0.3% Triton for 60 minutes.
Finally, the plates were washed three times with PBS/0.1% Tween 20 and the fluorescent intensity was read using an Analyst HT from Molecular Devices. The fluorescent intensity values from the serially diluted compound treatment group were analyzed using the Xlfit 4 program ([…]) (Formula 205: Y=Bottom+(Top-Bottom)/(1+(IC50/X)^Hillslope) to generate the IC50 value. Where Top is the maximum signal without Compound (+DMSO only) and Bottom represents maximum inhibition. Y is the fluorescence at some compound concentration. The control used to determine the fluorescent intensities for 100% pAKT S473 or 100% phosphorylated p4E-BP1 Thr37/46 were measured from untreated wells that contained only DMSO, instead of test compound.

In another assay the target is human mTOR enzyme (Homo sapiens, UniProt P42345). Put plainly: HTRF mTOR enzyme (kinase) assay. Type of assay: biochemical. Particulars: 5 μM ATP, 0.2 μM GST-S6K, read-out: hMTOR IC50. The protocol:
Methods: An HTRF mTOR enzyme assay was developed to assess the compounds' inhibitory activity. The mTOR assay buffer contained 10 mM Hepes (pH 7.4), 50 mM NaCl, […] BSA, 50 mM […], 10 mM MnCl2 and 0.5 mM DTT. […] 20 ng of human mTOR enzyme (<5% pure was preincubated with the compound for 10 minutes followed by the addition of 5 μM ATP and 0.2 μM GST-S6K (Zhang et al., Protein Expression and Purification 46, pp 414-420 (2006)). The reaction was incubated for one hour at 30° C. Anti phospho p70-S6K(Thr389) (˜1.7 ng/well, anti-phospho-p70S6K-cryptate (Pho-p70S6-Kin-K cat#64CUSKAY, from Cisbio)) and anti GST-XL665 (1:1 Ratio with the substrate GST-S6K, anti GST-XL665, cat#61GSTXLB) Cisbio) were added after the reaction was stopped. The plates were read (PHERAstar, BMG) at least 2 hours after adding the anti phospho p70-S6K and the anti GST-XL665.
IC50 DETERMINATIONS: Dose-response curves were plotted from the inhibition data generated, each in duplicate, from 8 point serial dilutions of inhibitory compounds. Concentration of compound was plotted against the HTRF em665/em590 ratio signal. To generate IC50 values, the dose-response curves were fitted to a standard sigmoidal curve and IC50 values were derived by nonlinear regression analysis.
In general terms: Time-resolved FRET reads energy transfer from a long-lived donor to a nearby acceptor.

Like-named read-outs stand apart in the source and are kept apart here.

A word on the IC50: it is the concentration at which inhibition is half-maximal.

human mTOR enzyme, sequence (P42345 1360-2549 limits assumed): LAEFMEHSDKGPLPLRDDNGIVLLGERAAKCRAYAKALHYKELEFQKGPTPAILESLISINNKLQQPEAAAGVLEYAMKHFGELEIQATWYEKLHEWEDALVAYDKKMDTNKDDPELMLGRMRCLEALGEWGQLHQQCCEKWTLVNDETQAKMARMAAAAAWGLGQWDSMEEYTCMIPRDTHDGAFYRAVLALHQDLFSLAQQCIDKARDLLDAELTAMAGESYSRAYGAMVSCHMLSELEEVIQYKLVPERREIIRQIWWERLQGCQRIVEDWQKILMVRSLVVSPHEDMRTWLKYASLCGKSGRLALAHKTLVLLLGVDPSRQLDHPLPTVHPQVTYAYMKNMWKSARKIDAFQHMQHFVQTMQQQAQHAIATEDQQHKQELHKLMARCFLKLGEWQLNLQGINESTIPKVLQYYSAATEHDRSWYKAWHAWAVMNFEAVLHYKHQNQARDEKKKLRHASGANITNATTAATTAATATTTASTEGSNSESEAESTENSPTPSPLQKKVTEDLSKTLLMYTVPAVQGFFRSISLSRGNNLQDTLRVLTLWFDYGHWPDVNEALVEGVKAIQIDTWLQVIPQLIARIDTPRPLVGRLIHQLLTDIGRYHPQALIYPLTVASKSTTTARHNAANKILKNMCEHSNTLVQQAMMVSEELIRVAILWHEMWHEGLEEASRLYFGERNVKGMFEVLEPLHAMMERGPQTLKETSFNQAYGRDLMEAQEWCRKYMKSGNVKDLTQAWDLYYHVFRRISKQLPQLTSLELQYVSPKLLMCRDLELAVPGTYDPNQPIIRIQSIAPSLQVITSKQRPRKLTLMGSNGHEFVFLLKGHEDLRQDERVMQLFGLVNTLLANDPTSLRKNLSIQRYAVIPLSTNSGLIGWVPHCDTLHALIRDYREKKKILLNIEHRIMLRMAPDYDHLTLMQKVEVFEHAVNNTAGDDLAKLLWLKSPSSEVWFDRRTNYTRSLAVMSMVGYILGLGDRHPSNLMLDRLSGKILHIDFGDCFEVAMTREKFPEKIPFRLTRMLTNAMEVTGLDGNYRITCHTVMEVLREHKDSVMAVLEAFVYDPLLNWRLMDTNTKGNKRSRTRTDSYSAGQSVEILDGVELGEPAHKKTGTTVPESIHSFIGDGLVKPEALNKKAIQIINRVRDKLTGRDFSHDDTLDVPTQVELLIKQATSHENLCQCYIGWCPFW

For `CO[C@]1(CO)CC[C@@H](c2nc3c(-c4ccc(-c5ccccc5)nc4)cnn3c(N)c2C(C)=O)CC1` [Compound 84, 1-(7-amino-5-((1R,4R)-4-(hydroxymethyl)-4-methoxycyclohexyl)-3-(6-phenylpyridin-3-yl)pyrazolo[1,5-a]pyrimidin-6-yl)ethanone], the values for the concentration for half-maximal inhibition (IC50) (in assay [1] (rated class); at human mTOR enzyme (rated class)) were 100 to 1000 nM and 1 to 100 nM, respectively.

Regarding `COCC1(O)CCC(c2nc3c(-c4cnc5ccc(F)cc5c4)cnn3c(N)c2Br)CC1` (centres unmarked) [Compound 165, 4-(7-amino-6-bromo-3-(6-fluoroquinolin-3-yl)pyrazolo[1,5-a]pyrimidin-5-yl)-1-(methoxymethyl)cyclohexanol], the IC50 in assay [1] (rated class) was 1000 to 2000 nM; at human mTOR enzyme (rated class), 1 to 100 nM.

Turning to `COCCO[C@]1(C(=O)O)CC[C@@H](c2nc3c(-c4cnn(-c5ccccc5)c4)cnn3c(N)c2C(C)=O)CC1` [Compound 55, (1R,4R)-4-(6-acetyl-7-amino-3-(1-phenyl-1H-pyrazol-4-yl)pyrazolo[1,5-a]pyrimidin-5-yl)-1-(2-methoxyethoxy)cyclohexanecarboxylic acid], the figures for the IC50 (in assay [1] (rated class); at human mTOR enzyme (rated class)) were 100 to 1000 nM and 1 to 100 nM, respectively.

In the case of `CS[C@]1(C(=O)O)CC[C@@H](c2nc3c(-c4cnn(-c5ccccc5)c4)cnn3c(N)c2Br)CC1` [Compound 10, (1R,4R)-4-(7-amino-6-bromo-3-(1-phenyl-1H-pyrazol-4-yl)pyrazolo[1,5-a]pyrimidin-5-yl)-1-(methylthio)-cyclohexane-carboxylic acid], the IC50 in assay [1] (rated class) fell in the range of 2000 to 5000 nM; at human mTOR enzyme (rated class), 1 to 100 nM.

With `Nc1c(Br)c([C@H]2CC[C@@](OCCN3CCOCC3)(C(=O)O)CC2)nc2c(-c3ccc(-c4ccccc4)nc3)cnn12` [Compound 65, (1R,4R)-4-(7-amino-6-bromo-3-(6-phenylpyridin-3-yl)pyrazolo[1,5-a]pyrimidin-5-yl)-1-(2-morpholinoethoxy) cyclohexanecarboxylic acid], the concentration for half-maximal inhibition (IC50) in assay [1] (rated class) was in the range of 1000 to 2000 nM; at human mTOR enzyme (rated class), 1 to 100 nM.

As to `COC[C@]1(C(=O)O)CC[C@@H](c2nc3c(-c4cnn(-c5ccccc5)c4)cnn3c(N)c2C(C)=O)CC1` [Compound 21, (1S,4S)-4-(6-acetyl-7-amino-3-(1-phenyl-1H-pyrazol-4-yl)pyrazolo[1,5-a]pyrimidin-5-yl)-1-(methoxymethyl)-cyclohexane-carboxylic acid], the IC50 fell in the range of 100 to 1000 nM in assay [1] (rated class) and 1 to 100 nM on human mTOR enzyme (rated class).

For `Nc1c(Br)c([C@H]2CC[C@](OCCN3CCOCC3)(C(=O)O)CC2)nc2c(-c3ccc(-c4ccccc4)nc3)cnn12` [Compound 66, (1S,4S)-4-(7-amino-6-bromo-3-(6-phenylpyridin-3-yl)pyrazolo[1,5-a]pyrimidin-5-yl)-1-(2-morpholinoethoxy) cyclohexanecarboxylic acid], the IC50 in assay [1] (rated class) was in the range of 1000 to 2000 nM; at human mTOR enzyme (rated class), 1 to 100 nM.

For the compound `Nc1c(Br)c(C2CCC(N)(C(=O)O)CC2)nc2c(-c3ccc(-c4ccccc4)nc3)cnn12` (centres unmarked) [Compound 73, 1-amino-4-(7-amino-6-bromo-3-(6-phenylpyridin-3-yl)pyrazolo[1,5-a]pyrimidin-5-yl)cyclohexanecarboxylic acid], the half-maximal inhibitory concentration (IC50) in assay [1] (rated class) was 5000 to 15000 nM; on human mTOR enzyme (rated class), 1 to 100 nM.

On to `C[C@]1(C(=O)O)CC[C@@H](c2nc3c(-c4ccc(-c5ccccc5)nc4)cnn3c(N)c2Br)CC1` [Compound 2, (1S,4S)-4-(7-amino-6-bromo-3-(6-phenylpyridin-3-yl)pyrazolo[1,5-a]pyrimidin-5-yl)-1-methylcyclohexanecarboxylic acid], for which the half-inhibitory concentration (IC50) in assay [1] (rated class) fell in the range of 2000 to 5000 nM; at human mTOR enzyme (rated class), 1 to 100 nM.

For the compound `COCCO[C@]1(C(=O)O)CC[C@H](c2nc3c(-c4cnn(-c5ccccc5)c4)cnn3c(N)c2C(C)=O)CC1` [Compound 54, (1S,4S)-4-(6-acetyl-7-amino-3-(1-phenyl-1H-pyrazol-4-yl)pyrazolo[1,5-a]pyrimidin-5-yl)-1-(2-methoxyethoxy)cyclohexanecarboxylic acid], the figures for the half-inhibitory concentration (IC50) (in assay [1] (rated class); at human mTOR enzyme (rated class)) were 5000 to 15000 nM and 1 to 100 nM, respectively.

Take `Nc1c(Br)c([C@H]2CC[C@](O)(CCO)CC2)nc2c(-c3ccc(-c4ccccc4)nc3)cnn12` [Compound 137, (1S,4S)-4-(7-amino-6-bromo-3-(6-phenylpyridin-3-yl)pyrazolo[1,5-a]pyrimidin-5-yl)-1-(2-hydroxyethyl)cyclohexanol]: the results for the IC50 (in assay [1] (rated class); on human mTOR enzyme (rated class)) were 100 to 1000 nM and 1 to 100 nM, respectively.

Consider `Nc1c(Br)c(C2CCC(O)(CO)CC2)nc2c(-c3ccc(-c4ccccc4)nc3)cnn12` (centres unmarked) [Compound 134, 4-(7-amino-6-bromo-3-(6-phenylpyridin-3-yl)pyrazolo[1,5-a]pyrimidin-5-yl)-1-(hydroxymethyl)cyclohexanol], for which the IC50 in assay [1] (numeric value) amounted to 209 nM; at human mTOR enzyme (numeric value) it was 7.37 nM.

Turning to `CC(=O)c1c(C2CCC(O)(CO)CC2)nc2c(-c3ccc(-c4cnn(C)c4)nc3)cnn2c1N` (centres unmarked) [Compound 145, 1-(7-amino-5-(4-hydroxy-4-(hydroxymethyl)-cyclohexyl)-3-(6-(1-methyl-1H-pyrazol-4-yl)pyridin-3-yl)pyrazolo[1,5-a]pyrimidin-6-yl)ethanone], the concentration for half-maximal inhibition (IC50) in assay [1] (rated class) fell in the range of 1000 to 2000 nM; at human mTOR enzyme (rated class), 1 to 100 nM.

For the compound `COc1ccc(-c2ccc(-c3cnn4c(N)c(C(C)=O)c(C5CCC(O)(CO)CC5)nc34)cn2)cc1C(=O)O` (centres unmarked) [Compound 155, 5-(5-(6-acetyl-7-amino-5-(4-hydroxy-4-(hydroxymethyl)-cyclohexyl)-pyrazolo-[1,5-a]pyrimidin-3-yl)pyridin-2-yl)-2-methoxybenzoic acid], the results for the half-maximal inhibitory concentration (IC50) (in assay [1] (rated class); on human mTOR enzyme (rated class)) were 5000 to 15000 nM and 1 to 100 nM, respectively.

With `COCCO[C@]1(C(=O)O)CC[C@@H](c2nc3c(-c4ccc(-c5ccccc5)nc4)cnn3c(N)c2SC)CC1` [Compound 63, (1R,4R)-4-(7-amino-6-(methylthio)-3-(6-phenylpyridin-3-yl)pyrazolo[1,5-a]pyrimidin-5-yl)-1-(2-methoxyethoxy)cyclohexanecarboxylic acid], the IC50 in assay [1] (rated class) lay in the range of 1000 to 2000 nM; at human mTOR enzyme (rated class), 1 to 100 nM.

Consider `COCCOC1(CO)CCC(c2nc3c(-c4ccc(-c5ccccc5)nc4)cnn3c(N)c2C(C)=O)CC1` (centres unmarked) [Compound 86, 1-(7-amino-5-(4-(hydroxymethyl)-4-(2-methoxyethoxy)-cyclohexyl)-3-(6-phenylpyridin-3-yl)pyrazolo[1,5-a]pyrimidin-6-yl)ethanone], for which the IC50 is 100 to 1000 nM in assay [1] (rated class) and 1 to 100 nM at human mTOR enzyme (rated class).

As to `Nc1c(Br)c([C@H]2CC[C@@](F)(C(=O)O)CC2)nc2c(-c3ccc(-c4ccccc4)nc3)cnn12` [Compound 4, (1R,4R)-4-(7-amino-6-bromo-3-(6-phenylpyridin-3-yl)pyrazolo[1,5-a]pyrimidin-5-yl)-1-fluorocyclohexane-carboxylic acid], the figures for the IC50 (in assay [1] (rated class); on human mTOR enzyme (rated class)) were 100 to 1000 nM and 1 to 100 nM, respectively.

On to `COC1(C#N)CCC(c2nc3c(-c4ccc(-c5ccccc5)nc4)cnn3c(N)c2Br)CC1` (centres unmarked) [Compound 75, 4-(7-amino-6-bromo-3-(6-phenylpyridin-3-yl)pyrazolo[1,5-a]pyrimidin-5-yl)-1-methoxycyclohexane-carbonitrile], for which the IC50 in assay [1] (rated class) was 2000 to 5000 nM; at human mTOR enzyme (rated class) it was 1 to 100 nM.

On to `COCCOCC1(C(=O)O)CCC(c2nc3c(-c4ccc(-c5ccccc5)nc4)cnn3c(N)c2C(C)=O)CC1` (centres unmarked) [Compound 24, 4-(6-acetyl-7-amino-3-(6-phenylpyridin-3-yl)pyrazolo[1,5-a]pyrimidin-5-yl)-1-((2-methoxyethoxy)methyl)cyclohexane-carboxylic acid], for which the concentration for half-maximal inhibition (IC50) in assay [1] (rated class) is 100 to 1000 nM; on human mTOR enzyme (rated class) it was 1 to 100 nM.
